Laboratory results from article PMC7311426, “An amphipathic peptide with antibiotic activity against multidrug-resistant Gram-negative bacteria” (Nature Communications, 2020).
≈ marks a conversion by molar mass, not a printed value.

Test system: P. aeruginosa
Test: microbe, parasite or virus in culture
In short: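 Broth microdilution in MHB, 2-fold 12-point series from 128 or 64 down to 0.06 or 0.03 μg mL^−1, 5 × 10^5 CFU mL^−1. Extra runs in CAMHB per CLSI and in MHB with 1% agarose; n ≥ 6.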

Compound: NC[C@H]1O[C@H](O[C@H]2[C@H](O)[C@@H](O[C@H]3O[C@H](CO)[C@@H](O)[C@H](N)[C@H]3O)[C@H](N)C[C@@H]2N)[C@H](N)C[C@@H]1O [TOB]
- MIC, broth microdilution (P. aeruginosa ATCC 27853 spontaneous mutant, AA139 selection 8X, plate 1, colony 5, drug-free passage 5): 0.5, 0.5 µg/mL
- MIC, broth microdilution (P. aeruginosa UNT 138-1 parent strain not exposed to drug): 0.5 µg/mL (≈ 1.07 µM)
- MIC, broth microdilution (P. aeruginosa UNT 138-1 spontaneous mutant, AA139 selection 4X, plate 1, colony 1, drug-free passage 1): 1, 1 µg/mL
- MIC, broth microdilution (P. aeruginosa UNT 138-1 spontaneous mutant, AA139 selection 4X, plate 1, colony 1, drug-free passage 5): 1, 1 µg/mL
- MIC, broth microdilution (P. aeruginosa UNT 138-1 spontaneous mutant, AA139 selection 4X, plate 1, colony 2, drug-free passage 1): 0.5, 0.5 µg/mL
- MIC, broth microdilution (P. aeruginosa UNT 138-1 spontaneous mutant, AA139 selection 4X, plate 1, colony 2, drug-free passage 5): 0.5, 0.5 µg/mL
- MIC, broth microdilution (P. aeruginosa UNT 138-1 spontaneous mutant, AA139 selection 4X, plate 1, colony 3, drug-free passage 1): 1 µg/mL (≈ 2.14 µM)
- MIC, broth microdilution (P. aeruginosa UNT 138-1 spontaneous mutant, AA139 selection 4X, plate 1, colony 3, drug-free passage 5): 0.5 µg/mL (≈ 1.07 µM)
- MIC, broth microdilution (P. aeruginosa UNT 138-1 spontaneous mutant, AA139 selection 4X, plate 1, colony 4, drug-free passage 1): 0.5, 0.5 µg/mL
- MIC, broth microdilution (P. aeruginosa UNT 138-1 spontaneous mutant, AA139 selection 4X, plate 1, colony 4, drug-free passage 5): 0.5, 0.5 µg/mL
- MIC, broth microdilution (P. aeruginosa UNT 138-1 spontaneous mutant, AA139 selection 4X, plate 1, colony 5, drug-free passage 1): 1 µg/mL (≈ 2.14 µM)
- MIC, broth microdilution (P. aeruginosa UNT 138-1 spontaneous mutant, AA139 selection 4X, plate 1, colony 5, drug-free passage 5): 0.5 µg/mL (≈ 1.07 µM)
- MIC, broth microdilution (P. aeruginosa UNT 138-1 spontaneous mutant, AA139 selection 4X, plate 1, colony 6, drug-free passage 1): 1 µg/mL (≈ 2.14 µM)
- MIC, broth microdilution (P. aeruginosa UNT 138-1 spontaneous mutant, AA139 selection 4X, plate 1, colony 6, drug-free passage 5): 0.5 µg/mL (≈ 1.07 µM)
- MIC, broth microdilution (P. aeruginosa UNT 138-1 spontaneous mutant, AA139 selection 4X, plate 1, colony 7, drug-free passage 1): 0.5, 0.5 µg/mL
- MIC, broth microdilution (P. aeruginosa UNT 138-1 spontaneous mutant, AA139 selection 4X, plate 1, colony 7, drug-free passage 5): 0.5, 0.5 µg/mL
- MIC, broth microdilution (P. aeruginosa UNT 138-1 spontaneous mutant, AA139 selection 4X, plate 2, colony 1, drug-free passage 1): 1, 1 µg/mL
- MIC, broth microdilution (P. aeruginosa UNT 138-1 spontaneous mutant, AA139 selection 4X, plate 2, colony 1, drug-free passage 5): 1, 1 µg/mL
- MIC, broth microdilution (P. aeruginosa UNT 138-1 spontaneous mutant, AA139 selection 4X, plate 2, colony 2, drug-free passage 1): 0.5, 0.5 µg/mL
- MIC, broth microdilution (P. aeruginosa UNT 138-1 spontaneous mutant, AA139 selection 4X, plate 2, colony 2, drug-free passage 5): 0.5, 0.5 µg/mL
- MIC, broth microdilution (P. aeruginosa UNT 138-1 spontaneous mutant, AA139 selection 4X, plate 2, colony 3, drug-free passage 1): 1 µg/mL (≈ 2.14 µM)
- MIC, broth microdilution (P. aeruginosa UNT 138-1 spontaneous mutant, AA139 selection 4X, plate 2, colony 3, drug-free passage 5): 0.5 µg/mL (≈ 1.07 µM)
- MIC, broth microdilution (P. aeruginosa UNT 138-1 spontaneous mutant, AA139 selection 4X, plate 2, colony 4, drug-free passage 1): 0.5, 0.5 µg/mL
- MIC, broth microdilution (P. aeruginosa UNT 138-1 spontaneous mutant, AA139 selection 4X, plate 2, colony 4, drug-free passage 5): 0.5, 0.5 µg/mL
- MIC, broth microdilution (P. aeruginosa UNT 138-1 spontaneous mutant, AA139 selection 4X, plate 2, colony 5, drug-free passage 1): 1 µg/mL (≈ 2.14 µM)
- MIC, broth microdilution (P. aeruginosa UNT 138-1 spontaneous mutant, AA139 selection 4X, plate 2, colony 5, drug-free passage 5): 0.5 µg/mL (≈ 1.07 µM)
- MIC, broth microdilution (P. aeruginosa UNT 138-1 spontaneous mutant, AA139 selection 4X, plate 2, colony 6, drug-free passage 1): 0.5, 0.5 µg/mL
- MIC, broth microdilution (P. aeruginosa UNT 138-1 spontaneous mutant, AA139 selection 4X, plate 2, colony 6, drug-free passage 5): 0.5, 0.5 µg/mL
- MIC, broth microdilution (P. aeruginosa UNT 138-1 spontaneous mutant, AA139 selection 4X, plate 2, colony 7, drug-free passage 1): 0.5, 0.5 µg/mL
- MIC, broth microdilution (P. aeruginosa UNT 138-1 spontaneous mutant, AA139 selection 4X, plate 2, colony 7, drug-free passage 5): 0.5, 0.5 µg/mL
- MIC, broth microdilution (P. aeruginosa UNT 138-1 spontaneous mutant, AA139 selection 8X, plate 1, colony 1, drug-free passage 1): 0.5 µg/mL (≈ 1.07 µM)
- MIC, broth microdilution (P. aeruginosa UNT 138-1 spontaneous mutant, AA139 selection 8X, plate 1, colony 1, drug-free passage 5): 2 µg/mL (≈ 4.28 µM)
- MIC, broth microdilution (P. aeruginosa UNT 138-1 spontaneous mutant, AA139 selection 8X, plate 1, colony 2, drug-free passage 1): 1 µg/mL (≈ 2.14 µM)
- MIC, broth microdilution (P. aeruginosa UNT 138-1 spontaneous mutant, AA139 selection 8X, plate 1, colony 2, drug-free passage 5): 0.5 µg/mL (≈ 1.07 µM)
- MIC, broth microdilution (P. aeruginosa UNT 138-1 spontaneous mutant, AA139 selection 8X, plate 1, colony 3, drug-free passage 1): 0.5, 0.5 µg/mL
- MIC, broth microdilution (P. aeruginosa UNT 138-1 spontaneous mutant, AA139 selection 8X, plate 1, colony 3, drug-free passage 5): 0.5, 0.5 µg/mL
- MIC, broth microdilution (P. aeruginosa UNT 138-1 spontaneous mutant, AA139 selection 8X, plate 1, colony 4, drug-free passage 1): 1 µg/mL (≈ 2.14 µM)
- MIC, broth microdilution (P. aeruginosa UNT 138-1 spontaneous mutant, AA139 selection 8X, plate 1, colony 4, drug-free passage 5): 0.5 µg/mL (≈ 1.07 µM)
- MIC, broth microdilution (P. aeruginosa UNT 138-1 spontaneous mutant, AA139 selection 8X, plate 1, colony 5, drug-free passage 1): 0.5, 0.5 µg/mL
- MIC, broth microdilution (P. aeruginosa UNT 138-1 spontaneous mutant, AA139 selection 8X, plate 1, colony 5, drug-free passage 5): 0.5, 0.5 µg/mL
- MIC, broth microdilution (P. aeruginosa UNT 138-1 spontaneous mutant, AA139 selection 8X, plate 2, colony 1, drug-free passage 1): 0.5, 0.5 µg/mL
- MIC, broth microdilution (P. aeruginosa UNT 138-1 spontaneous mutant, AA139 selection 8X, plate 2, colony 1, drug-free passage 5): 0.5, 0.5 µg/mL
